In data set [1] the test system is Human Pan T cells. Put plainly: IL-2 Release Detection Assay. The format is cell-based. The note with it: T-cell, IL-2 in supernatant by ELISA, anti-CD3 pre-coated plate, 24 hours. On the procedure: Add dilutions of compounds into the cells and incubate at 37° C. &5% CO2 for 24 hours. IL-2 in cell supernatant was detected by ELISA Kit (R&D, DY202). […] Top and Bottom: Plateaus in same units as Y. Log EC50: same log units as X. Activation fold: Top activation/DMSO control. Activation % at 100 nM: Activation of non-linear regression equation curve at the concentration of 100 nM/DMSO control*100%.

Data set [2] in a line: Pharmacokinetic Profile Evaluation (mouse PK). The format is in vivo, CD-1 mice. The settings on record: CD-1, plasma, oral administration at 5 mg/kg, read-out: AUC00~∞. On the procedure: Species and strain: CD-1 mice of SPF. Source: Sino-British SIPPR/BK Lab Animal Ltd, Shanghai. 3 mice were intravenously administrated with given compounds (Formulation: 5% DMSO+10% Solutol+85% Saline) or orally gavage administrated with given compounds (Formulation: 5% DMSO+10% Solutol+85% Saline). The blood samples were taken via cephalic vein at timepoints 0.083 h, 0.25 h, 0.5 h, 1 h, 2 h, 4 h, 8 h and 24 h after intravenous administration or at timepoints 0.25 h, 0.5 h, 1 h, 2 h, 4 h, 6 h, 8 h and 24 h after oral gavage administration, 30 μL/time point. Blood samples were placed in tubes containing K2-EDTA and stored on ice until centrifuged. The blood samples were centrifuged at 6800 g for 6 minutes at 2-8° C. within 1 h after collected and stored frozen at approximately −80° C. An aliquot of 10 μL plasma samples were protein precipitated with 200 μL MeOH in which contains 10 ng/mL Verapamil (IS). The mixture was vortexed for 1 min and centrifuged at 18000 g for 7 min. Transfer 180 μL supernatant to 96 well plates. An aliquot of 6 μL supernatant was injected for LC-MS/MS analysis by LC-MS/MS-04 (API4000) instrument. The analytical results were confirmed using quality control samples for intra-assay variation. The accuracy of >66.7% of the quality control samples should be between 80-120% of the known value(s). Standard set of parameters including Area Under the Curve (AUC(0-t) and AUC(0-∞)), elimination half-live (T1/2), maximum plasma concentration (Cmax), will be calculated using noncompartmental analysis modules in FDA certified pharmacokinetic program Phoenix WinNonlin 7.0 (Pharsight, USA).

The term EC50 denotes the midpoint of the concentration-response curve. Turning to `Cc1ccc2oc(C3CCN(c4cc(=O)n(C)c5ccc(C#N)nc45)CC3)nc2c1` [Example 1, 5-methyl-8-(4-(5-methylbenzo[d]oxazol-2-yl)piperidin-1-yl)-6-oxo-5,6-dihydro-1,5-naphthyridine-2-carbonitrile], the EC50 in data set [1] came to 452 nM. In addition, the AUC in data set [2] worked out at 6150 ng·h/mL.

In turn, `Cc1ccc2oc(C3CCN(c4cc(=O)n(C)c5ccc(Cl)cc45)CC3)nc2c1` [Example 2, 6-chloro-1-methyl-4-(4-(5-methylbenzo[d]oxazol-2-yl)piperidin-1-yl)quinolin-2(1H)-one] showed an EC50 in data set [1] of 326 nM.

In data set [1], `Cc1ccc2oc(C3CCN(c4cc(=O)n(C)c5ccc(C#N)cc45)CC3)nc2c1` [Example 3, 1-methyl-4-(4-(5-methylbenzo[d]oxazol-2-yl)piperidin-1-yl)-2-oxo-1,2-dihydroquinoline-6-carbonitrile] returned an EC50 of 174 nM.

In data set [1], `Cc1ccc2oc(C3CCN(c4nc(=O)n(C)c5ccc(Cl)cc45)CC3)nc2c1` [Example 4, 6-chloro-1-methyl-4-(4-(5-methylbenzo[d]oxazol-2-yl)piperidin-1-yl)quinazolin-2(1H)-one] had an EC50 of 200 nM.

Take `Cc1ccc2oc(C3CCN(c4c(C#N)c(=O)n(C)c5ccc(Cl)nc45)CC3)nc2c1` [Example 9, 6-chloro-1-methyl-4-(4-(5-methylbenzo[d]oxazol-2-yl)piperidin-1-yl)-2-oxo-1,2-dihydro-1,5-naphthyridine-3-carbonitrile]: in data set [1], the EC50 was 476 nM.

With `Cc1ccc2oc(C3CCN(c4cc(=O)n(C)c5ccc(Cl)nc45)CC3)nc2c1` [Example 10, 6-chloro-1-methyl-4-(4-(5-methylbenzo[d]oxazol-2-yl)piperidin-1-yl)-1,5-naphthyridin-2(1H)-one], the EC50 in data set [1] came to 1250 nM.

`Cn1c(=O)cc(N2CCC(c3nc4cc(F)ccc4o3)CC2)c2nc(Cl)ccc21` [Example 11, 6-chloro-4-(4-(5-fluorobenzo[d]oxazol-2-yl)piperidin-1-yl)-1-methyl-1,5-naphthyridin-2(1H)-one]: the response in data set [1] was half-maximal at 832 nM (EC50).

`Cn1c(=O)cc(N2CCC(c3nc4cc(F)ccc4o3)CC2)c2nc(C#N)ccc21` [Example 12, 8-(4-(5-fluorobenzo[d]oxazol-2-yl)piperidin-1-yl)-5-methyl-6-oxo-5,6-dihydro-1,5-naphthyridine-2-carbonitrile] gave an EC50 in data set [1] of 262 nM. Besides, the AUC in data set [2] is 5940 ng·h/mL.

As to `COCCOc1cc2c(nc1Cl)c(N1CCC(c3nc4cc(C)ccc4o3)CC1)cc(=O)n2C` [Example 15, 6-chloro-7-(2-methoxyethoxy)-1-methyl-4-(4-(5-methylbenzo[d]oxazol-2-yl)piperidin-1-yl)-1,5-naphthyridin-2(1H)-one], in data set [1], the EC50 is 963 nM.

In data set [1], `COCCOc1cc2c(nc1C#N)c(N1CCC(c3nc4cc(C)ccc4o3)CC1)cc(=O)n2C` [Example 16, 3-(2-methoxyethoxy)-5-methyl-8-(4-(5-methylbenzo[d]oxazol-2-yl)piperidin-1-yl)-6-oxo-5,6-dihydro-1,5-naphthyridine-2-carbonitrile] showed an EC50 of 346 nM.

In turn, `Cc1ccc2oc(C3CCN(c4cc(=O)n(C)c5cc(NCCO)c(Cl)nc45)CC3)nc2c1` [Example 17, 6-chloro-7-((2-hydroxyethyl)amino)-1-methyl-4-(4-(5-methylbenzo[d]oxazol-2-yl)piperidin-1-yl)-1,5-naphthyridin-2(1H)-one] came in with a concentration for a half-maximal effect (EC50) in data set [1] of 1200 nM.

Turning to `Cc1ccc2oc(C3CCN(c4cc(=O)n(C)c5cc(NCCO)c(C#N)nc45)CC3)nc2c1` [Example 18, 3-((2-hydroxyethyl)amino)-5-methyl-8-(4-(5-methylbenzo[d]oxazol-2-yl)piperidin-1-yl)-6-oxo-5,6-dihydro-1,5-naphthyridine-2-carbonitrile], the midpoint of the response in data set [1], the EC50, lay at 123 nM.

`Cc1ccc2oc(C3CCN(c4cc(=O)n(C)c5cc(OC6CCOC6)c(C#N)nc45)CC3)nc2c1` (stereo not drawn) [Example 21, 5-methyl-8-(4-(5-methylbenzo[d]oxazol-2-yl)piperidin-1-yl)-6-oxo-3-((tetrahydrofuran-3-yl)oxy)-5,6-dihydro-1,5-naphthyridine-2-carbonitrile] displayed an EC50 in data set [1] of 132 nM.

In data set [1], `Cc1ccc2oc(C3CCN(c4cc(=O)n(C)c5cc(OCCO)c(C#N)nc45)CC3)nc2c1` [Example 23, 3-(2-hydroxyethoxy)-5-methyl-8-(4-(5-methylbenzo[d]oxazol-2-yl)piperidin-1-yl)-6-oxo-5,6-dihydro-1,5-naphthyridine-2-carbonitrile] had an EC50 of 294 nM. In addition, the AUC in data set [2] turned out to be 12100 ng·h/mL.

In data set [1], `Cc1ccc2oc(C3CCN(c4cc(=O)n(C)c5cc(OCCCO)c(C#N)nc45)CC3)nc2c1` [Example 24, 3-(3-hydroxypropoxy)-5-methyl-8-(4-(5-methylbenzo[d]oxazol-2-yl)piperidin-1-yl)-6-oxo-5,6-dihydro-1,5-naphthyridine-2-carbonitrile] registered an EC50 of 512 nM.

As to `Cc1ccc2oc(C3CCN(c4cc(=O)n(C)c5cc(O[C@@H]6CCOC6)c(C#N)nc45)CC3)nc2c1` [Example 28, (R)-5-methyl-8-(4-(5-methylbenzo[d]oxazol-2-yl)piperidin-1-yl)-6-oxo-3-((tetrahydrofuran-3-yl)oxy)-5,6-dihydro-1,5-naphthyridine-2-carbonitrile], in data set [2], the AUC came to 3460 ng·h/mL.

Compound `Cc1ccc2oc(C3CCN(c4cc(=O)n(C)c5cc(O[C@H]6CCOC6)c(C#N)nc45)CC3)nc2c1` [Example 29, (S)-5-methyl-8-(4-(5-methylbenzo[d]oxazol-2-yl)piperidin-1-yl)-6-oxo-3-((tetrahydrofuran-3-yl)oxy)-5,6-dihydro-1,5-naphthyridine-2-carbonitrile] yielded an EC50 in data set [1] of 446 nM.

`Cc1ccc2oc(N3CC=C(c4cc(=O)n(C)c5cc(OCCO)c(C#N)nc45)CC3)nc2c1` [Example 30, 3-(2-hydroxyethoxy)-5-methyl-8-(1-(5-methylbenzo[d]oxazol-2-yl)-1,2,3,6-tetrahydropyridin-4-yl)-6-oxo-5,6-dihydro-1,5-naphthyridine-2-carbonitrile]: the response in data set [1] was half-maximal at 682 nM (EC50).

The record behind these values is patent publication US12077538B2, “Diacylglycerol kinase (DGK) alpha inhibitors and uses thereof” (priority 2022, dated 2024).
